These results are taken from patent US5594135A, “Tricyclic DNA gyrase inhibitors” (Hoffmann-La Roche Inc., priority 1994, dated 1997).

For one experiment, the target named is T1, DNA gyrase (Escherichia coli, UniProt P0AES4+P0AES6).
T1 construct: supercoiling of relaxed pUC18
Description: Inhibition of DNA gyrase activity (DNA gyrase supercoiling assay, relaxed pUC18 plasmid as substrate). In kind it is biochemical, E. coli H560. How it is done: A. Inhibition of DNA gyrase activity
The inhibition of DNA gyrase activity was measured using a DNA gyrase supercoiling assay according to R. Otter & N. Cozzarelli: Methods in Enzymology, Vol. 100, pp 171-180 (1983). DNA gyrase was isolated from E. coli H560, and relaxed pUC18 plasmid was used as substrate. The activities as regards inhibition of DNA gyrase activity, expressed as maximum non-effective concentration of the test compound (MNC in μg/ml) are compiled in the following Table 1: […]

The test system of a further experiment is S. faecalis 6. Description: Antibacterial activity in vitro (agar dilution). The conditions noted are these: Enterococcus faecalis, agar dilution (MuellerHinton agar), inoculum 10^4 CFU/spot, read-out: minimum inhibitory concentration (MIC). Type of experiment: cell-based. A general note: In agar dilution the substance is mixed into plates at graded concentrations.

For a further experiment, the system named is S. aureus Smith. Put plainly: Antibacterial activity in vitro (agar dilution). Type of experiment: cell-based. The conditions noted are these: Staphylococcus aureus, agar dilution (MuellerHinton agar), inoculum 10^4 CFU/spot, read-out: minimum inhibitory concentration (MIC).
Another experiment deals with P. aeruginosa 799/61. Put plainly: Antibacterial activity in vitro (agar dilution). In kind it is cell-based. The conditions noted are these: Pseudomonas aeruginosa, agar dilution (MuellerHinton agar), inoculum 10^4 CFU/spot, read-out: minimum inhibitory concentration (MIC).
The next experiment deals with E. coli B. Description: Antibacterial activity in vitro (agar dilution). Type of experiment: cell-based. The conditions noted are these: Escherichia coli, agar dilution (MuellerHinton agar), inoculum 10^4 CFU/spot, read-out: minimum inhibitory concentration (MIC).
Another experiment deals with S. aureus 25923. Put plainly: Antibacterial activity in vitro (agar dilution). The conditions noted are these: Staphylococcus aureus, agar dilution (MuellerHinton agar), inoculum 10^4 CFU/spot, read-out: minimum inhibitory concentration (MIC). In kind it is cell-based.
The next experiment relates to S. pyogenes 15. Description: Antibacterial activity in vitro (agar dilution). Type of experiment: cell-based. The conditions noted are these: Streptococcus pyogenes, agar dilution (MuellerHinton agar), inoculum 10^4 CFU/spot, read-out: minimum inhibitory concentration (MIC).
Another experiment has as its system S. epidermidis 16-2. Description: Antibacterial activity in vitro (agar dilution). In kind it is cell-based. The conditions noted are these: Staphylococcus epidermidis, 162, agar dilution (MuellerHinton agar), inoculum 10^4 CFU/spot, read-out: minimum inhibitory concentration (MIC).

Structures are written as SMILES. Values after ≈ are worked out from the molar mass of the structure shown. Structures can show the parent of a compound that is named as a salt.

T1 sequence (P0AES4 whole entry, one chain of several): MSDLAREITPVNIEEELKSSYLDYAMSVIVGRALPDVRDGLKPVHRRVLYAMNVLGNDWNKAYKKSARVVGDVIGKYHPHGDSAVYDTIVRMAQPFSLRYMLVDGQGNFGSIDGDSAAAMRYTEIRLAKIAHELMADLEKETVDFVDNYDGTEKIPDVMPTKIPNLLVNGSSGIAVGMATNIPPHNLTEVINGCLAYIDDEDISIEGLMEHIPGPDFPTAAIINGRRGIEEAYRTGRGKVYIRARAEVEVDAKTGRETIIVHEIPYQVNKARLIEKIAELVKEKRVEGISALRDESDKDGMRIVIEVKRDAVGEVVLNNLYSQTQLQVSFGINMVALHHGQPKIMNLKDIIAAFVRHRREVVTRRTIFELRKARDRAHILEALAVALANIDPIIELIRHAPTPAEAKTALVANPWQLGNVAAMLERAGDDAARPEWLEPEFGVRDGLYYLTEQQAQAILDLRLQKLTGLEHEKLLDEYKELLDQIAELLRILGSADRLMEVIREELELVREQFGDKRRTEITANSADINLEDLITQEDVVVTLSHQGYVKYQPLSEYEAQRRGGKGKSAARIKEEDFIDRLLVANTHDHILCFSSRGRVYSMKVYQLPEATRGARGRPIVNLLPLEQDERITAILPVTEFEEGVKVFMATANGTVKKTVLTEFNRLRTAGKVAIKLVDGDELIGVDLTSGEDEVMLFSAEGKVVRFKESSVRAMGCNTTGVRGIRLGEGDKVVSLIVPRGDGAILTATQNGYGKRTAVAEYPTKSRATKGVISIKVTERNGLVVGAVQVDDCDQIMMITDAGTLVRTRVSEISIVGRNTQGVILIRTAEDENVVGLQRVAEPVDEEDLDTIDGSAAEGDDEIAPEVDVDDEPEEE
Description for E. coli B: A. Antibacterial activity in vitro
(§1) Agar dilution (MuellerHinton agar), Inoculum: 10^4 CFU/spot
Description for P. aeruginosa 799/61: A. Antibacterial activity in vitro
as §1
Description for S. aureus 25923: A. Antibacterial activity in vitro
as §1
Description for S. aureus Smith: A. Antibacterial activity in vitro
as §1
Description for S. epidermidis 16-2: A. Antibacterial activity in vitro
as §1

Take `COc1cc(O)c2c(c1C)C(=O)O[C@H](CO)CCC(=S)N[C@H](c1nc(C)no1)CSC2` [Example 16, (4R,9S)-15-hydroxy-9-hydroxymethyl-13-methoxy-12-methyl-4-(3-methyl-1,2,4-oxadiazol-5-yl)-6-thioxo-3,4,5,6,7,8,9,11-octahydro-1H-10,2,5-benzoxathiaazacyclotridecine-11-one]: the “maximum non-effective concentration of the test compound (MNC)” value at DNA gyrase turned out to be 0.01 µg/mL.
Consider `COc1cc(O)c2c(c1C)C(=O)OCCCCC(=O)N[C@H](c1nc(C)no1)C[S@@+]([O-])C2` [Example 111, (2S,4R)-16-hydroxy-14-methoxy-13-methyl-4-(3-methyl-1,2,4-oxadiazol-5-yl)-2-oxo-1,3,4,5,6,7,8,9,10,12-benzoxathiaazacyclotetradecin-6,12-dione], for which, on DNA gyrase, the “maximum non-effective concentration of the test compound (MNC)” value was 0.1 µg/mL.
`COc1cc(O)c2c(c1C)C(=O)OCCCCC(=S)N[C@H](c1nc(CN)no1)CSC2.Cl` [Example 130, (R)-4-(3-aminomethyl-1,2,4-oxadiazol-5-yl)-16-hydroxy-14-methoxy-13-methyl-6-thioxo-1,3,4,5,6,7,8,9,10,12-decahydro-11,2,5-benzoxathiaazacyclotetradecin-12-one hydrochloride]: the MIC in the experiment on S. faecalis 6 was determined as 0.5 µg/mL; in the experiment on S. aureus Smith, 0.25 µg/mL; with P. aeruginosa 799/61, 64 µg/mL; in the experiment with E. coli B, 32 µg/mL; with S. aureus 25923 it was 0.5 µg/mL; in the experiment on S. pyogenes 15, 0.5 µg/mL. In addition, in the experiment with S. epidermidis 16-2, the MIC turned out to be 0.12 µg/mL.
With `COc1cc(O)c2c(c1C)C(=O)OCCCCC(=O)N[C@H](c1nc(CNC(C)C)no1)CSC2` [Example 132, (R)-16-hydroxy-4-[3-(isopropylamino)-methyl-1,2,4-oxadiazol-5-yl]-14-methoxy-13-methyl-1,3,4,5,6,7,8,9,10,12-decahydro-11,2,5-benzoxathiaazacyclotetradecin-6,12-dione hydrochloride], the MIC with S. faecalis 6 is 4 µg/mL; in the experiment with S. aureus Smith, 2 µg/mL; with P. aeruginosa 799/61, over 64 µg/mL; with E. coli B, 64 µg/mL; in the experiment with S. aureus 25923, 4 µg/mL; in the experiment on S. pyogenes 15, 4 µg/mL. In addition, the MIC in the experiment with S. epidermidis 16-2 is 0.5 µg/mL.
Take `COc1cc(O)c2c(c1C)C(=O)OCCCCC(=S)N[C@H](c1nc(CNC(C)=O)no1)CSC2` [Example 142, (R)-N-[5-(16-hydroxy-14-methoxy-13-methyl-12-oxo-6-thioxo-1,3,4,5,6,7,8,9,10,12-decahydro-11,2,5-benzoxathiaazacyclotetradecin-4-yl)-1,2,4-oxadiazol-3-ylmethyl]-acetamide]: the MIC with S. faecalis 6 was 1 µg/mL (≈ 1.97 µM); in the experiment with S. aureus Smith, 1 µg/mL (≈ 1.97 µM); in the experiment on P. aeruginosa 799/61, over 64 µg/mL; in the experiment on E. coli B, 64 µg/mL (≈ 126 µM); in the experiment with S. aureus 25923, 2 µg/mL (≈ 3.93 µM); in the experiment with S. pyogenes 15 it was 1 µg/mL (≈ 1.97 µM). Moreover, the MIC in the experiment with S. epidermidis 16-2 was 0.12 µg/mL (≈ 0.236 µM).
Consider `COC(=O)c1c(Br)c(OC)cc(O)c1CSC[C@H](Nc1nc(-c2ccc(C(=O)O)cc2)cs1)c1nc(C)no1` [Example 171], for which the MIC was 4 µg/mL (≈ 6.29 µM) in the experiment on S. faecalis 6; 4 µg/mL (≈ 6.29 µM) in the experiment on S. aureus Smith; over 64 µg/mL in the experiment on P. aeruginosa 799/61; over 64 µg/mL in the experiment with E. coli B; 8 µg/mL (≈ 12.6 µM) in the experiment with S. aureus 25923; 2 µg/mL (≈ 3.15 µM) in the experiment on S. pyogenes 15. The MIC in the experiment with S. epidermidis 16-2 stood at 1 µg/mL (≈ 1.57 µM).
`COC(=O)c1c(C)c(OC)cc(O)c1CSC[C@H](Nc1nc(-c2ccccc2)ns1)c1nc(C)no1` [Example 175, (R)-3-hydroxy-5-methoxy-6-methyl-2-[2-(3-methyl-1,2,4-oxadiazol-5-yl)-2-(3-phenyl-1,2,4-thiadiazol-5-ylamino)-ethylsulfanylmethyl]-benzoic acid methyl ester]: the MIC was 4 µg/mL (≈ 7.58 µM) with S. faecalis 6; 1 µg/mL (≈ 1.9 µM) with S. aureus Smith; over 64 µg/mL in the experiment with P. aeruginosa 799/61; over 64 µg/mL in the experiment on E. coli B; 4 µg/mL (≈ 7.58 µM) with S. aureus 25923; 4 µg/mL (≈ 7.58 µM) with S. pyogenes 15. In addition, in the experiment on S. epidermidis 16-2, the MIC was determined as 1 µg/mL (≈ 1.9 µM).
